Results: PubChem BioAssay (NCI)
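Protocol summary: plate cells (96-well), add compound at 5 concentrations, incubate 48 h, interpolate endpoints linearly. TGI: total growth inhibition.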

Experiments:
Assay in all cases: NCI tumour cell line growth inhibition, 48 h
[1] = system: OVCAR-3 ovarian
[2] = system: CCRF-CEM leukemia
[3] = system: OVCAR-8 ovarian
[4] = system: NCI-H23 lung
[5] = system: HCC-2998 colon
[6] = system: SF-268 CNS
[7] = system: TK-10 renal
[8] = system: SF-539 CNS
[9] = system: SNB-75 CNS
[10] = system: SN12C renal
[11] = system: A549 NSCLC
[12] = system: U251 CNS
[13] = system: CAKI-1 renal
[14] = system: COLO 205 colon
[15] = system: HOP-62 NSCLC
[16] = system: M14 melanoma
[17] = system: MALME-3M melanoma
[18] = system: DLD-1 colon
[19] = system: SK-MEL-2 melanoma
[20] = system: EKVX NSCLC
[21] = system: KM12 colon
[22] = system: HOP-92 NSCLC
[23] = system: M19-MEL melanoma
[24] = system: HL-60(TB) leukemia
[25] = system: SK-OV-3 ovarian
[26] = system: UACC-62 melanoma
[27] = system: RXF-631 renal
[28] = system: NCI-H522 lung
[29] = system: UACC-257 melanoma
[30] = system: DMS 273 small cell lung
[31] = system: LOX IMVI melanoma
[32] = system: RXF 393 renal
[33] = system: HOP-18 NSCLC
[34] = system: SK-MEL-28 melanoma
[35] = system: KM20L2 colon
[36] = system: NCI-H460 lung
[37] = system: SK-MEL-5 melanoma
[38] = system: OVCAR-5 ovarian
[39] = system: K-562 leukemia
[40] = system: 786-0 renal
[41] = system: DMS 114 small cell lung
[42] = system: UO-31 renal
[43] = system: ACHN renal
[44] = system: IGROV1 ovarian
[45] = system: SF-295 CNS
[46] = system: HT29 colon
[47] = system: LXFL 529 NSCLC
[48] = system: OVCAR-4 ovarian
[49] = system: SW-620 colon
[50] = system: SNB-19 CNS
[51] = system: NCI-H226 lung
[52] = system: HCT-116 colon
[53] = system: HCT-15 colon
[54] = system: XF 498 CNS
[55] = system: SNB-78 CNS
[56] = system: SR leukemia
[57] = system: MOLT-4 leukemia
[58] = system: A498 renal
[59] = system: RPMI-8226 leukemia

With `O=C1/C(=C\c2ccccc2)C2/C(=C\c3ccccc3)C(=O)/C(=C\c3ccccc3)C2/C1=C\c1ccccc1` (centres undefined) the TGI [1] was 4.92 µM, the TGI [2] was 4.35 µM and the TGI [3] was 21.2 µM. It also gave a TGI [4] of 3.78 µM, a TGI [5] of 2.59 µM and a TGI [6] of 18.5 µM. For the same compound, the TGI [7] was 19.5 µM, the TGI [8] was 6.81 µM and the TGI [9] was 71.2 µM. The TGI [10] was 4.89 µM, the TGI [11] was 7 µM and the TGI [12] was 2.43 µM. For the same compound, the TGI [13] was 8.17 µM, the TGI [14] was 2.94 µM and the TGI [15] was 5.03 µM. It also gave a TGI [16] of 3.44 µM, a TGI [17] of 4.36 µM and a TGI [18] of 2.85 µM. The TGI [19] was 3.62 µM, the TGI [20] was 52.7 µM and the TGI [21] was 3.54 µM. The TGI [22] was 4.4 µM, the TGI [23] was 3.47 µM and the TGI [24] was 4.5 µM. It also gave a TGI [25] of 46.9 µM, a TGI [26] of 4.24 µM and a TGI [27] of 9.68 µM. It also gave a TGI [28] of 2.09 µM, a TGI [29] of 4.2 µM and a TGI [30] of 3.17 µM. For the same compound, the TGI [31] was 1.75 µM, the TGI [32] was 3.15 µM and the TGI [33] was over 100 µM. The TGI [34] was 8.75 µM, the TGI [35] was 3.55 µM and the TGI [36] was 4.2 µM. The TGI [37] was 4.7 µM, the TGI [38] was 2.82 µM and the TGI [39] was over 100 µM. The TGI [40] was 2.78 µM, the TGI [41] was 5.67 µM and the TGI [42] was 3.32 µM. For the same compound, the TGI [43] was 5.94 µM, the TGI [44] was 4.8 µM and the TGI [45] was 5.71 µM. It also gave a TGI [46] of 3.7 µM, a TGI [47] of 24.9 µM and a TGI [48] of 3.83 µM. The TGI [49] was 7.26 µM.
Compound `COc1ccc2cc1Oc1ccc(cc1)CC1c3cc4c(cc3CCN1C)Oc1c(OC)cc3c(c1O4)C(C2)N(C)CC3` (centres undefined) has a TGI [1] of 19.5 µM, a TGI [2] of 6.69 µM and a TGI [3] of 5.45 µM. For the same compound, the TGI [4] was 18.2 µM, the TGI [5] was 9.86 µM and the TGI [6] was 13.1 µM. For the same compound, the TGI [50] was 13.5 µM, the TGI [7] was 31.3 µM and the TGI [8] was 3.9 µM. The TGI [10] was 3.62 µM, the TGI [11] was 21.4 µM and the TGI [12] was 4.47 µM. The TGI [14] was 2.83 µM, the TGI [51] was 10.7 µM and the TGI [15] was 28 µM. The TGI [16] was 3 µM, the TGI [18] was 9.62 µM and the TGI [19] was 6.53 µM. The TGI [20] was 24.2 µM, the TGI [21] was 4.57 µM and the TGI [23] was 14.3 µM. The TGI [52] was 3.21 µM, the TGI [24] was 4.25 µM and the TGI [53] was 5.82 µM. It also gave a TGI [26] of 10.5 µM, a TGI [27] of 31.1 µM and a TGI [54] of 3.41 µM. It also gave a TGI [28] of 4.67 µM, a TGI [55] of 48 µM and a TGI [30] of 3.02 µM. It also gave a TGI [31] of 2.81 µM, a TGI [32] of 7.93 µM and a TGI [34] of 2.91 µM. It also gave a TGI [35] of 9.25 µM, a TGI [56] of 4.68 µM and a TGI [36] of 3.6 µM. The TGI [37] was 21.1 µM, the TGI [38] was 26.5 µM and the TGI [39] was 6.02 µM. For the same compound, the TGI [40] was 23 µM, the TGI [43] was 17.9 µM and the TGI [57] was 4.73 µM. The TGI [45] was 3.81 µM, the TGI [46] was 4.77 µM and the TGI [47] was 11 µM. The TGI [48] was 3.03 µM and the TGI [49] was 3.79 µM.
`CCCc1onc(CCC(=O)N(Cc2ccccc2)Cc2ccccc2)c1CC` showed a TGI [1] of over 100 µM, a TGI [58] of over 100 µM and a TGI [2] of over 100 µM. The TGI [4] was over 100 µM, the TGI [5] was over 100 µM and the TGI [6] was over 100 µM. For the same compound, the TGI [59] was over 100 µM, the TGI [10] was over 100 µM and the TGI [12] was over 100 µM. For the same compound, the TGI [13] was over 100 µM, the TGI [14] was over 100 µM and the TGI [15] was over 100 µM. The TGI [16] was over 100 µM, the TGI [17] was over 100 µM and the TGI [18] was over 100 µM. It also gave a TGI [19] of over 100 µM, a TGI [21] of over 100 µM and a TGI [22] of over 100 µM. It also gave a TGI [23] of over 100 µM, a TGI [24] of over 100 µM and a TGI [53] of over 100 µM. The TGI [25] was over 100 µM, the TGI [26] was over 100 µM and the TGI [27] was over 100 µM. It also gave a TGI [54] of over 100 µM, a TGI [28] of over 100 µM and a TGI [55] of over 100 µM. For the same compound, the TGI [29] was over 100 µM, the TGI [30] was over 100 µM and the TGI [31] was over 100 µM. For the same compound, the TGI [35] was over 100 µM, the TGI [36] was over 100 µM and the TGI [38] was over 100 µM. For the same compound, the TGI [39] was over 100 µM, the TGI [40] was over 100 µM and the TGI [41] was over 100 µM. It also gave a TGI [43] of over 100 µM, a TGI [57] of over 100 µM and a TGI [44] of over 100 µM. For the same compound, the TGI [45] was over 100 µM, the TGI [46] was over 100 µM and the TGI [47] was over 100 µM. It also gave a TGI [48] of over 100 µM.
